Read-outs that look alike come from different tables or passages of the source.
Assays:
bacterial mutagenicity = conditions: cited from earlier work
[1] = Solubility in solvents by UHPLC assay; format: physicochemical
Text: The tool called “Early phase solvent selection: solubility prediction” was used. This tool allows to predict the solubility of material in a large scope of solvents, knowing the solubility in some of them. The solubility can be also predicted in function of temperature, and for solvent combinations. The solubility prediction is based on similar structures moieties between solvents. Therefore, the measurement of solubility in 16 different solvents allowed for the estimate of solubility in up to 106 solvents. […] Solubilities were obtained by UHPLC assay. Among these 106 solvents, 27 seemed interesting as solvent or antisolvent. DMF. NMP and DMSO are the solvents in which rofecoxib (RXB-201) is the most soluble (>100 g/L at 30° C.). Nevertheless, ICH Q3C, DMF and NMP were less suitable than DMSO which remains the best option. Thus, no changes were implemented regarding the solvent.
Since the main purpose of the recrystallization is to decrease the rate of one single identified impurity, 4-[4-(methylsulfinyl)phenyl]-3-phenyl-2(5H)-furanone solubilities were measured in a couple of probable antisolvents identified in Table 9. A reference of 4-[4-(methylsulfinyl)phenyl]-3-phenyl-2(5H)-furanone (CHG P059-038) was synthesized at lab on 8 g for this study, with 98% purity, as per International Patent Application No. WO/2005/120584, which is incorporated herein in its entirety. Table 10 below reports the solubility of 4-[4-(methylsulfinyl)phenyl]-3-phenyl-2(5H)-furanone in various antisolvent candidates. It is noteworthy that 4-[4-(methylsulfinyl)phenyl]-3-phenyl-2(5H)-furanone is very soluble in acetic acid. […] Alcohols can alternatively be employed as antisolvent.

[2] = Stability of rofecoxib drug substance at 40° C./75% RH; format: physicochemical; conditions: Lot 16P3140F851
Description: (§1) Stability data for rofecoxib drug substance (Lot 16P3140F851) are provided in Tables 6A-B. If an individual impurity is ≥0.05% area, the result is reported to the nearest 0.01%. If an individual impurity is <0.02% (LOD), the result is reported as “not detected” (ND). If an individual impurity is <0.05% area but ≥0.02% area, the result is recorded as <0.05% area.

[3] = Stability of rofecoxib drug substance at 25° C./60% RH; format: physicochemical; conditions: Lot 16P3140F851
Description: as §1

[4] = RXB-Hydroxy formation from rofecoxib in DMSO with Na2SO3 under air (UHPLC); format: physicochemical; conditions: 5.5V DMSO
Description: Trials were performed to check the effect of both temperature and sodium sulfite on the 4-[4-(methylsulphonyl)phenyl]-3-phenyl-5-hydroxyfuran-2-one rate. Pure rofecoxib (RXB-201) (F851) was solubilized in 5.5V DMSO. on which Na2SO3 was added. Three amounts of Na2SO3 were tested: • 0%: rofecoxib (RXB-201) post filtration • 0.5%: ashes result obtained on pilot batch (crude rofecoxib (RXB-201) F801) • 1.5%: ashes result obtained on APG P052-110 batch
Samples were subjected to 2 different temperatures under air atmosphere: • 40° C.: current heating temperature for polishing filtration • 60° C.: possible future temperature for polishing filtration if DMSO volumes are reduced for better productivity.

[5] = Stability of isolated crude rofecoxib towards hydrogen peroxide; format: physicochemical; conditions: crude unwashed, stored at room temperature for 17 days (CHG P059-104)
Description: Several verifications were performed to confirm the feasibility of hydrogen peroxide removal: • No corrosion of Stainless steel 316L in contact with crude rofecoxib (RXB-201) mother liquors (enriched in excess hydrogen peroxide) after 10 days at 20° C. […] Crude washings seem to be efficient enough to remove peroxide traces in cake washings. • Stability of isolated crude rofecoxib (RXB-201) towards hydrogen peroxide is very satisfying. Crude unwashed rofecoxib (RXB-201) was stored at room temperature for 17 days. No evolution of UHPLC profile was observed (CHG P059-104).

[6] = test system: Salmonella typhimurium (TA98, TA100, TA1535, TA97a) and E. coli (WP2, WP2uvrA, WP2 uvrA pKM101); conditions: with and without S9, up to 6000 μg/plate; cited from earlier work
[7] = test system: Chinese hamster lung cells; conditions: all concentrations tested, with and without S-9; cited from earlier work
CHO cells = conditions: 25 to 125 μM with S-9 or 25 to 100 μM without S-9; cited from earlier work
mice = conditions: dose levels up to 60 mg/kg; cited from earlier work
rats = conditions: dose levels up to 8 mg/kg; cited from earlier work
[8] = in vivo; cited from earlier work
arthritis model = conditions: in vivo; cited from earlier work
[9] = analog data from software training sets / literature

For N#CCc1ccccc1 [A-RSM2-01, 2-phenylacetonitrile], the Experimental mutagenicity (bacterial mutagenicity; [9]) is listed as “negative”.

Work on CS(=O)(=O)c1ccc(C2=C(c3ccccc3)C(=O)OC2)cc1 [Rofecoxib, 4-[4-(methylsulfonyl)phenyl]-3-phenyl-2(5H)-furanone] yielded a solubility ([1]; DMF, 30 °C) of 133 mg/mL, a solubility ([1]; DMF, 30 °C, organic solvent or mixture, DMF, 30 °C, read-out: Solubility) of over 100 mg/mL and a solubility ([1]; DMSO, 20 °C, organic solvent or mixture, DMSO, 20 °C, read-out: Solubility) of 93 mg/mL. It also gave a solubility ([1]; DMSO, 30 °C) of 107 mg/mL, a solubility ([1]; DMSO, 30 °C, organic solvent or mixture, DMSO, 30 °C, read-out: Solubility) of over 100 mg/mL and a solubility ([1]; DMSO, 40 °C, organic solvent or mixture, DMSO, 40 °C, read-out: Solubility) of 133 mg/mL. It also gave a solubility ([1]; DMSO, 50 °C, organic solvent or mixture, DMSO, 50 °C, read-out: Solubility) of 181 mg/mL, a solubility ([1]; DMSO, 60 °C, organic solvent or mixture, DMSO, 60 °C, read-out: Solubility) of 181 mg/mL and a solubility ([1]; NMP, 30 °C, organic solvent or mixture, NMP, 30 °C, read-out: Solubility) of over 100 mg/mL. The solubility ([1]; acetic acid, 30 °C, organic solvent or mixture, Acetic acid, 30 °C, read-out: Solubility) was 5 mg/mL, the solubility ([1]; acetone, 30 °C, organic solvent or mixture, Acetone, 30 °C, read-out: Solubility) was 28 mg/mL and the solubility ([1]; acetonitrile, 30 °C, organic solvent or mixture, Acetonitrile, 30 °C, read-out: Solubility) was 41 mg/mL. It also gave a solubility ([1]; anisole, 30 °C, organic solvent or mixture, Anisole, 30 °C, read-out: Solubility) of 22 mg/mL, a solubility ([1]; chlorobenzene, 30 °C, organic solvent or mixture, Chlorobenzene, 30 °C, read-out: Solubility) of 2.3 mg/mL and a solubility ([1]; dichloromethane, 30 °C, organic solvent or mixture, Dichloromethane, 30 °C, read-out: Solubility) of 45 mg/mL. It also gave a solubility ([1]; ethyl acetate, 30 °C, organic solvent or mixture, Ethyl acetate, 30 °C, read-out: Solubility) of 4.7 mg/mL, a solubility ([1]; methanol, 30 °C, organic solvent or mixture, Methanol, 30 °C, read-out: Solubility) of 1.8 mg/mL and a solubility ([1]; n-butanol, 30 °C, organic solvent or mixture, n-butanol, 30 °C, read-out: Solubility) of 0.2 mg/mL. It also gave a solubility ([1]; n-heptane, 30 °C, organic solvent or mixture, n-heptane, 30 °C, read-out: Solubility) of under 0.1 mg/mL, a solubility ([1]; toluene, 30 °C, organic solvent or mixture, Toluene, 30 °C, read-out: Solubility) of 1.2 mg/mL and a solubility ([1]; water, 30 °C, water, 30 °C, read-out: Solubility) of under 0.1 mg/mL. The “Solubility in water (descriptive)” value ([1]; water, insoluble regarding US pharmacopeia) was “very poorly soluble”, the Appearance ([2]; 1 Month) was “Off-white” and the “Assay by HPLC” value ([2]; 1 Month) was 99.6 w/w. For the same compound, the “Impurities by HPLC: RRT ~ 0.5” value ([2]; 1 Month) was under 0.05 % area, the “Impurities by HPLC: RXB-furanone” value ([2]; 1 Month) was 0.08 % area and the “Impurities by HPLC: Total Impurities” value ([2]; 1 Month) was 0.11 % area. For the same compound, the “Water Content by Karl Fischer” value ([2]; 1 Month) was 0.07%, the Appearance ([2]; 3 Month) was “White” and the “Assay by HPLC” value ([2]; 3 Month) was 100.5 w/w. The “Impurities by HPLC: RRT ~ 0.5” value ([2]; 3 Month) was under 0.05 % area, the “Impurities by HPLC: RXB-furanone” value ([2]; 3 Month) was 0.08 % area and the “Impurities by HPLC: Total Impurities” value ([2]; 3 Month) was 0.12 % area. For the same compound, the “Water Content by Karl Fischer” value ([2]; 3 Month) was 0.09%, the Appearance ([2]; Initial) was “Off-white” and the “Assay by HPLC” value ([2]; Initial) was 99.8 w/w. The “Impurities by HPLC: RRT ~ 0.5” value ([2]; Initial) was under 0.05 % area, the “Impurities by HPLC: RXB-furanone” value ([2]; Initial) was 0.08 % area and the “Impurities by HPLC: Total Impurities” value ([2]; Initial) was 0.11 % area. The “Polymorphic form by XRPD” value ([2]; Initial) was “Form A”, the “Water Content by Karl Fischer” value ([2]; Initial) was 0.12% and the Appearance ([3]; 3 Month) was “White”. The “Assay by HPLC” value ([3]; 3 Month) was 100.4 % w/w, the “Impurities by HPLC: RRT ~ 0.5” value ([3]; 3 Month) was under 0.05 % area and the “Impurities by HPLC: RXB-furanone” value ([3]; 3 Month) was 0.08 % area. For the same compound, the “Impurities by HPLC: Total Impurities” value ([3]; 3 Month) was 0.11 % area, the “Water Content by Karl Fischer” value ([3]; 3 Month) was 0.08% and the Appearance ([3]; Initial) was “Off-white”. The “Assay by HPLC” value ([3]; Initial) was 99.8 % w/w, the “Impurities by HPLC: RRT ~ 0.5” value ([3]; Initial) was under 0.05 % area and the “Impurities by HPLC: RXB-furanone” value ([3]; Initial) was 0.08 % area. For the same compound, the “Impurities by HPLC: Total Impurities” value ([3]; Initial) was 0.11 % area, the “Polymorphic form by XRPD” value ([3]; Initial) was “Form A” and the “Water Content by Karl Fischer” value ([3]; Initial) was 0.12%. For the same compound, the “RXB-Hydroxy (UPLC)” value ([4]; 0% Na2SO3 (residue on ignition), IPC1 (3 h), 40° C.) was 0.08 % a/a, the “RXB-Hydroxy (UPLC)” value ([4]; 0% Na2SO3 (residue on ignition), IPC1 (3 h), 60° C.) was 0.16 % a/a and the “RXB-Hydroxy (UPLC)” value ([4]; 0% Na2SO3 (residue on ignition), IPC2 (6 h), 40° C.) was 0.14 % a/a. The “RXB-Hydroxy (UPLC)” value ([4]; 0% Na2SO3 (residue on ignition), IPC2 (6 h), 60° C.) was 0.17 % a/a, the “RXB-Hydroxy (UPLC)” value ([4]; 0.5% Na2SO3 (residue on ignition), IPC1 (3 h), 40° C.) was 0.30 % a/a and the “RXB-Hydroxy (UPLC)” value ([4]; 0.5% Na2SO3 (residue on ignition), IPC1 (3 h), 60° C.) was 0.35 % a/a. The “RXB-Hydroxy (UPLC)” value ([4]; 0.5% Na2SO3 (residue on ignition), IPC2 (6 h), 40° C.) was 0.45 % a/a, the “RXB-Hydroxy (UPLC)” value ([4]; 0.5% Na2SO3 (residue on ignition), IPC2 (6 h), 60° C.) was 0.52 % a/a and the “RXB-Hydroxy (UPLC)” value ([4]; 1.5% Na2SO3 (residue on ignition), IPC1 (3 h), 40° C.) was 0.38 % a/a. For the same compound, the “RXB-Hydroxy (UPLC)” value ([4]; 1.5% Na2SO3 (residue on ignition), IPC1 (3 h), 60° C.) was 0.67 % a/a, the “RXB-Hydroxy (UPLC)” value ([4]; 1.5% Na2SO3 (residue on ignition), IPC2 (6 h), 40° C.) was 0.60 % a/a and the “RXB-Hydroxy (UPLC)” value ([4]; 1.5% Na2SO3 (residue on ignition), IPC2 (6 h), 60° C.) was 0.73 % a/a. For the same compound, the “Evolution of UHPLC profile” value [5] was “No evolution”, the Mutagenicity [6] was “negative” and the “Mutations in Chinese hamster lung cells” value [7] was “negative”. For the same compound, the “Percent of aberrant cells” value (CHO cells) was “no significant increases”, the Carcinogenicity (mice) was “not carcinogenic” and the Carcinogenicity (rats) was “not carcinogenic”.

C[S+]([O-])c1ccc(C2=C(c3ccccc3)C(=O)OC2)cc1 (stereo not drawn) [A-STG4-01, 4-(4-(methylsulfinyl)phenyl)-3-phenylfuran-2(5H)-one] showed a solubility ([1]; acetic acid, 30 °C, organic solvent or mixture, Table 10: Acetic acid, 30 °C, read-out: Solubility) of 1540 mg/mL, a solubility ([1]; acetic acid, organic solvent or mixture, acetic acid, temperature not stated, read-out: Solubility in acetic acid) of over 1000 mg/mL and a solubility ([1]; ethanol, 30 °C, organic solvent or mixture, Table 10: Ethanol, 30 °C, read-out: Solubility) of 28 mg/mL. It also gave a solubility ([1]; isopropanol (IPA), 30 °C, organic solvent or mixture, Table 10: IPA, 30 °C, read-out: Solubility) of 0.2 mg/mL, a solubility ([1]; n-butanol, 30 °C, organic solvent or mixture, Table 10: n-Butanol, 30 °C, read-out: Solubility) of 14 mg/mL and a solubility ([1]; water, 30 °C, water, Table 10: Water, 30 °C, read-out: Solubility) of 0.7 mg/mL. The “Pharmacokinetic profile compared with rofecoxib” value [8] was “slightly improved” and the “Pharmacological activity in an arthritis model compared with rofecoxib” value (arthritis model) was “better”.

In the case of c1ccc(SCCSc2ccccc2)cc1 [1,2-bis(phenylthio)ethane], the Experimental mutagenicity (bacterial mutagenicity; [9]) is given as “non-mutagenic”.

In the case of O=C(CBr)c1ccccc1 [LS-188087, 2-bromoacetophenone], the Experimental mutagenicity (bacterial mutagenicity) is listed as “negative”.

In the case of CS(=O)(=O)c1ccc(C(=O)CBr)cc1 [LS-394467, 2-Bromo-1-[4-(methylsulfonyl)phenyl]-1-ethanone], the Experimental mutagenicity (bacterial mutagenicity; [9]) is given as “positive”.

Source: patent publication US11617735B2, “Purified forms of rofecoxib, methods of manufacture and use” (Tremeau Pharmaceuticals, Inc., priority 2018, dated 2023)
